Here are results for seven compounds from ChEMBL document CHEMBL1201862, “PubChem BioAssay data set” (2004).

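Each compound was tested at five concentrations against cells in 96-well plates for 48 hours. GI50: concentration for 50% inhibition of growth.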 The source made the active and inactive calls. No stated cut-off is given here; in the data, active = GI50 up to about 1.1 µM and inactive = higher. Bounds are passed on as bounds.

Among the test systems are ACHN; CCRF-CEM; HCT-116; HCT-15; IGROV-1; K562; M14; MCF7; MDA-MB-435; NCI-H226; NCI-H522; NCI/ADR-RES; OVCAR-4; OVCAR-5; PC-3; SF-268; SF-295; SK-MEL-5; SNB-19; UO-31.
Common to all, as to test: NCI anticancer screen, dose series, 48 h

Regarding `COC(=O)CC1c2ccccc2N2C(=O)Cc3c([nH]c4ccccc34)C12` (stereo not given), the GI50 is > 100 µM (inactive) with ACHN; > 100 µM (inactive) in the assay on CCRF-CEM; > 100 µM (inactive) in the assay with HCT-116; over 100 µM with HCT-15; > 100 µM (inactive) in the assay with IGROV-1; 35.8 µM (inactive) in the assay with K562. Also, the GI50 was > 100 µM (inactive) with M14; 34.8 µM (inactive) with MCF7; > 100 µM (inactive) in the assay on MDA-MB-435; > 100 µM (inactive) in the assay on NCI-H226; > 100 µM (inactive) in the assay with NCI-H522; > 100 µM (inactive) in the assay on NCI/ADR-RES. The GI50 in the assay with OVCAR-4 was 31.4 µM (inactive); in the assay on OVCAR-5, > 100 µM (inactive); with PC-3 it was > 100 µM (inactive); in the assay with SF-268, > 100 µM (inactive); in the assay on SF-295, 7.93 µM (inactive); in the assay with SK-MEL-5, > 100 µM (inactive). Further, the GI50 in the assay with SNB-19 and in the assay with UO-31 was > 100 µM (inactive) in each case.
Consider `Cc1cc(C)nc(NS(=O)(=O)c2ccc(NNc3c4ccccc4nc4c(C(=O)Nc5ccc(S(=O)(=O)Nc6cc(C)on6)cc5)cccc34)cc2)n1`, for which the GI50 is 31.3 µM (inactive) with ACHN; 23.1 µM (inactive) in the assay with CCRF-CEM; 31.3 µM (inactive) with HCT-116; 51.1 µM in the assay with HCT-15; 29 µM (inactive) in the assay on IGROV-1; 34.5 µM (inactive) in the assay with K562. Further, the GI50 with M14 is 53.2 µM (inactive); with MCF7, 50.8 µM (inactive); with MDA-MB-435, 41.5 µM (inactive); in the assay with NCI-H226, 25.8 µM (inactive); with NCI-H522 it was 28.2 µM (inactive); in the assay with NCI/ADR-RES, > 100 µM (inactive). Moreover, the GI50 in the assay with OVCAR-4 was 46.3 µM (inactive); in the assay with OVCAR-5 it was 23.9 µM (inactive); in the assay with PC-3 it was 34.8 µM (inactive); in the assay with SF-268 it was 27.4 µM (inactive); in the assay on SF-295, 57.1 µM (inactive); with SK-MEL-5 it was 31.3 µM (inactive). Also, the figures for the GI50 in the assay with SNB-19 and with UO-31 were 48 µM (inactive) and 34.7 µM (inactive), respectively.
As for `N#Cc1c(N)nc(Sc2ccccc2N)c(C#N)c1-c1ccc(Cl)cc1`, the GI50 in the assay with ACHN was 10.7 µM (inactive); in the assay with CCRF-CEM it was > 27.2 µM (inactive); in the assay on HCT-116 it was 6.81 µM (inactive); in the assay with HCT-15 it was 7.4 µM; in the assay on IGROV-1 it was 5.52 µM (inactive); in the assay on K562 it was 3.07 µM (inactive). Besides, the GI50 with M14 was 10.5 µM (inactive); with MCF7, 7.05 µM (inactive); in the assay with MDA-MB-435 it was 11.7 µM (inactive); in the assay with NCI-H226, 37.2 µM (inactive); in the assay with NCI-H522 it was 11.6 µM (inactive); with NCI/ADR-RES, 6.4 µM (inactive). Further, the GI50 in the assay with OVCAR-4 was 17.8 µM (inactive); in the assay on OVCAR-5 it was 27.1 µM (inactive); with PC-3, 3.71 µM (inactive); in the assay on SF-268, 6.24 µM (inactive); in the assay on SF-295, 6.65 µM (inactive); in the assay on SK-MEL-5, 12.6 µM (inactive). In addition, the GI50 with SNB-19 is 14.3 µM (inactive); in the assay on UO-31, 2.79 µM (inactive).
On to `CC(=O)O[C@H]1C(=O)[C@@]2(C)[C@H]([C@H](OC(=O)c3cccc(C(F)(F)F)c3)[C@]3(O)C[C@H](OC(=O)[C@H](O)[C@@H](NC(=O)c4ccccc4)c4ccccc4)C(C)=C1C3(C)C)[C@]1(OC(C)=O)CO[C@@H]1C[C@@H]2O`, for which the GI50 in the assay with ACHN was 0.377 µM (active); in the assay with CCRF-CEM, < 0.0025 µM (active); in the assay on HCT-116, < 0.0025 µM (active); in the assay with HCT-15, 0.268 µM; with IGROV-1, 0.00703 µM (active); in the assay on K562, < 0.0025 µM (active). Moreover, the GI50 is 0.00306 µM (active) in the assay on M14; < 0.0025 µM (active) in the assay on MCF7; < 0.0025 µM (active) in the assay on MDA-MB-435; 0.00946 µM (active) with NCI-H226; < 0.0025 µM (active) with NCI-H522; 1.4 µM (inactive) with NCI/ADR-RES. In addition, the GI50 is 0.336 µM (active) in the assay on OVCAR-4; 0.00475 µM (active) in the assay on OVCAR-5; < 0.0025 µM (active) in the assay with PC-3; 0.223 µM (active) with SF-268; 0.0387 µM (active) in the assay on SF-295; < 0.0025 µM (active) in the assay with SK-MEL-5. Besides, the GI50 is 0.0889 µM (active) with SNB-19 and 0.918 µM (active) in the assay with UO-31.
`O=C1OC(CCCN2CCCCC2)(c2ccccc2)CC12CCCC2` (stereo not given): the GI50 was > 100 µM (inactive) with ACHN; 54.5 µM (inactive) with CCRF-CEM; 73.1 µM (inactive) in the assay on HCT-116; over 95.3 µM in the assay with HCT-15; > 100 µM (inactive) in the assay with IGROV-1; 40.5 µM (inactive) in the assay with K562. The GI50 in the assay with M14 was 17.7 µM (inactive); in the assay on MCF7, 58.2 µM (inactive); in the assay with MDA-MB-435, 67.8 µM (inactive); with NCI-H226, > 96.6 µM (inactive); in the assay with NCI-H522 it was > 100 µM (inactive); in the assay with NCI/ADR-RES, > 100 µM (inactive). In addition, the GI50 with OVCAR-4 is 97.9 µM (inactive); with OVCAR-5 it was > 87.1 µM (inactive); with PC-3, > 100 µM (inactive); with SF-268 it was > 100 µM (inactive); with SF-295 it was > 84.9 µM (inactive); in the assay on SK-MEL-5, 18.7 µM (inactive). For the same compound, the GI50 in the assay with SNB-19 was > 100 µM (inactive); in the assay with UO-31, 73.1 µM (inactive).
With `CC(C)=NOC(=O)CNC(=O)C(Cc1ccccc1)NC(=O)C(C)NC(=O)OC(C)(C)C` (stereo not given), the GI50 in the assay with ACHN was > 100 µM (inactive); in the assay with CCRF-CEM, > 100 µM (inactive); in the assay on HCT-116, > 100 µM (inactive); in the assay with HCT-15, over 100 µM; in the assay on IGROV-1 it was > 100 µM (inactive); in the assay with K562 it was > 100 µM (inactive). For the same compound, the GI50 with M14, in the assay on MCF7, in the assay on MDA-MB-435, in the assay on NCI-H226, in the assay with NCI-H522 and with NCI/ADR-RES was > 100 µM (inactive) each time. The GI50 with OVCAR-4, in the assay on OVCAR-5, in the assay with PC-3, in the assay with SF-268, in the assay on SF-295 and in the assay on SK-MEL-5 was > 100 µM (inactive) throughout. The GI50 in the assay with SNB-19 and in the assay on UO-31 was > 100 µM (inactive) in each case.
For `C/C(=N\NC(N)=S)c1ccccn1.OB(O)c1ccccc1`, the GI50 was 2.04 µM (inactive) in the assay with ACHN; 2.18 µM (inactive) in the assay with CCRF-CEM; 3.5 µM (inactive) in the assay with HCT-116; 2.84 µM with HCT-15; 4.46 µM (inactive) with IGROV-1; 3.61 µM (inactive) in the assay with K562. The GI50 in the assay on M14 is 2.98 µM (inactive); with MCF7 it was 4.55 µM (inactive); with MDA-MB-435, 7.55 µM (inactive); with NCI-H226 it was 6.12 µM (inactive); in the assay on NCI-H522 it was 1.8 µM (inactive); in the assay with NCI/ADR-RES, 3.7 µM (inactive). In addition, the GI50 in the assay with OVCAR-4 is 4.25 µM (inactive); with OVCAR-5, 6.05 µM (inactive); in the assay on PC-3, 4.15 µM (inactive); with SF-268, 2.67 µM (inactive); in the assay on SF-295, 7.05 µM (inactive); in the assay with SK-MEL-5, 4.63 µM (inactive). For the same compound, the GI50 is 10.5 µM (inactive) with SNB-19 and 2.39 µM (inactive) with UO-31.
